Results published in publication PMC6858952 (Clinical cancer research : an official journal of the …, 2019).

What was measured:
[1] = tested on: human organoids from normal pancreata (hN); test: Organoid cytotoxicity assay; assay type: cell-based; conditions: 72 h, read-out: EC50 hN
[2] = tested on: KPC mice (pancreatic ductal adenocarcinoma); test: Survival study in tumor-bearing KPC mice; assay type: in vivo, mouse
[3] = tested on: mouse organoids from normal pancreata (mN); test: Organoid cytotoxicity assay; assay type: cell-based; conditions: 72 h, read-out: EC50 mN
[4] = tested on: hT3 organoid orthotopic xenografts in NSG mice; test: Orthotopic xenografts of human tumor organoids, 7-day trial; assay type: in vivo, mouse
[5] = tested on: mouse tumor organoids (mT); test: Organoid cytotoxicity assay; assay type: cell-based; conditions: 72 h, read-out: EC50 mT
[6] = Intratumoral gemcitabine pharmacokinetic analysis; assay type: in vivo, mouse; conditions: KPC tumors, with versus without MEKi and AKTi

SMILES | EC50 [1] [µM] | survival (in words) [2] | tumor growth (in words) [2] | EC50 [3] [µM] | cell death by CC3 IHC (in words) [4] | cell proliferation by Ki67 IHC (in words) [4] | EC50 [5] [µM] | intratumoral concentration of Gem and its metabolites [6]
NC1(c2ccc(-c3nc4ccn5c(=O)[nH]nc5c4cc3-c3ccccc3)cc2)CCC1 [AKTi, MK2206] | 70 | without extension in survival | reduced tumor growth | 0.14 |  |  |  | 
CCOc1cc2ncc(C#N)c(Nc3ccc(OCc4ccccn4)c(Cl)c3)c2cc1NC(=O)/C=C/CN(C)C [ERBBi, neratinib] |  |  |  |  | no effect on cell death | reduced cell proliferation | 1.2 | 
Nc1ccn([C@@H]2O[C@H](CO)[C@@H](O)C2(F)F)c(=O)n1 [Gem, gemcitabine] |  | did not significantly impact | did not significantly impact |  |  |  |  | no differences in intratumoral concentration
Cn1cnc2c(F)c(Nc3ccc(Br)cc3Cl)c(C(=O)NOCCO)cc21 [MEKi, selumetinib] | 12 | did not significantly impact | did not significantly impact | 2 | significantly increased | did not have any significant impact |  | 
